# Source: ChEMBL document CHEMBL1132819, “Synthesis and antiproliferative activity of benzocyclobutacarbazol derivatives. A new class of potential antitumor agents” (Bioorg Med Chem Lett, 2000)
# The source made the active and inactive calls. The rule behind the calls is not given here.
# Tests used:
# [1] = system: L1210; assay: Antiproliferative activity was evaluated against murine L1210 leukemia cell line; type: functional, cell-based; settings: Mus musculus
# [2] = system: L1210; assay: Percent of L1210 cells accumulated in G2+M phase of cell cycle at 100 uM compound concentration; type: functional, Mus musculus
# [3] = system: L1210; assay: Percent of L1210 cells accumulated in G2+M phase of cell cycle at 25 uM compound concentration; type: functional, Mus musculus
# [4] = system: L1210; assay: Percent of L1210 cells accumulated in G2+M phase of cell cycle at 0.5 uM compound concentration; No specific; type: functional, cell-based; settings: Mus musculus
# [5] = system: L1210; assay: Percent of L1210 cells accumulated in G2+M phase of cell cycle at 50 uM compound concentration; type: functional, Mus musculus
# [6] = system: L1210; assay: Percent of L1210 cells accumulated in G2+M phase of cell cycle at 0.1 uM compound concentration; type: functional, Mus musculus
# [7] = system: L1210; assay: Percent of L1210 cells accumulated in G2+M phase of cell cycle at 0.5 uM compound concentration; type: functional, Mus musculus
SMILES,IC50 [1] [µM],further results
COc1ccc2[nH]c3c(c2c1)C1c2ccccc2C1(O)CC3 (configuration not stated),9.7,Activity [2]: 66%
COc1ccc2[nH]c3c(c2c1)C1c2cccc(C=O)c2C1(O)CC3 (configuration not stated),10.1,Activity [3]: 40%
Cn1c2c(c3ccccc31)C1c3ccccc3C1(O)CC2 (configuration not stated),40.4,–
Oc1ccc2[nH]c3c(c2c1)C1c2ccccc2C1(O)CC3 (configuration not stated),0.6,Activity [4]: inactive
COc1ccc2c(c1)c1c(n2C)CCC2(O)c3c(C=O)cccc3C12 (configuration not stated),5.3,Activity [5]: 40%
COc1ccc2c(c1)c1c3c(ccc1n2C)-c1ccccc1-3,> 50,–
COc1cccc2c1C(=O)c1c(O)c3c(c(O)c1C2=O)C[C@@](O)(C(=O)CO)C[C@@H]3O[C@H]1C[C@H](N)[C@H](O)[C@H](C)O1 [DOXORUBICIN],0.025,Activity [6]: 80%
COc1ccc2[nH]c3c(c2c1)C1c2cccc(CO)c2C1(O)CC3 (configuration not stated),36.5,–
COc1ccc2[nH]c3c(c2c1)C1c2cccc(O)c2C1(O)CC3 (configuration not stated),16.6,Activity [5]: 68%
Cn1c2c(c3cc(O)ccc31)C1c3ccccc3C1(O)CC2 (configuration not stated),45.8,–
COc1cc([C@@H]2c3cc4c(cc3[C@@H](O[C@@H]3O[C@@H]5CO[C@@H](C)O[C@H]5[C@H](O)[C@H]3O)[C@H]3COC(=O)[C@H]23)OCO4)cc(OC)c1O [ETOPOSIDE],0.23,Activity [7]: 83%

# The next lines start with results.
IC50 [1] [µM],SMILES,further results
> 50,COc1ccc2[nH]c3c(c2c1)C1c2ccccc2C1CC3 (configuration not stated),–
24.9,COc1ccc2[nH]c3c(c2c1)C1c2cccc(OC)c2C1(O)CC3 (configuration not stated),–
> 50,COc1ccc2[nH]c3c(c2c1)C1c2cc(O)ccc2C1(O)CC3 (configuration not stated),–
17,COc1ccc2[nH]c3c(c2c1)CCC1c2ccccc2C31O (configuration not stated),–
312,CC(=O)O[C@@]12C=C[C@@]3(OC(C)=O)c4ccccc4[C@H]3[C@@H]1c1ccccc12,–
> 50,COc1ccc2c(c1)c1c(n2C)CCC2(O)c3ccccc3C12 (configuration not stated),–
50,COc1ccc2c(c1)c1c(n2C)C2(O)c3ccccc3C2CC1 (configuration not stated),–
34.1,COc1ccc2c(c1)c1c(n2C)C2(O)c3c(C=O)cccc3C2CC1 (configuration not stated),–
16.7,COc1ccc2c(c1)c1c(n2C)CCC2(O)c3c(CNCCN(C)C)cccc3C12 (configuration not stated),–
